Data reported in patent publication US7015228B2, “4-amino-2-(2-pyridyl)pyrimidines as microbicidal active substances” (Ciba Specialty Chemicals Corporation, priority 2001, dated 2006).
≈ marks a conversion by molar mass, not a printed value.

What was measured:
Assay type in all cases: cell-based
[1] = tested on: Escherichia coli NCTC 8196; assay: Minimum inhibitory concentration (MIC) in microtitre plates; settings: for Minimum inhibitory concentration (MIC) E. coli: Table 7, 48 hours at 37° C., MIC = ≦20% growth compared to control; for Minimum inhibitory concentration (MIC) E. coli NCTC 8196: Table 8, * = significant inhibition of growth, but not complete inhibition
Method in brief: (§1)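 Compounds in DMSO, 1:2 dilution series; bacteria at 1–5×10^6 CFU/ml diluted 1:100 in CASO broth. Incubation 48 h at 37° C, growth read as OD 620 nm. MIC is the lowest concentration giving ≤20% growth relative to control; duplicates.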

[2] = tested on: Staphylococcus hominis DMS 20328; assay: as above; settings: Table 7; 48 hours at 37° C.; MIC = ≦20% growth compared to control
Method in brief: as §1

[3] = tested on: Aspergillus niger ATCC 6275; assay: Minimum inhibitory concentration (MIC), further microorganisms; settings: Table 8; * = significant inhibition of growth, but not complete inhibition
Method in brief: (§2)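 Organisms at 1–5×10^6 CFU/ml were diluted 1:100 into CASO broth (bacteria, yeast) or Sabouraud 2% glucose broth (mould) over 1:2 DMSO dilution series of compound. Bacteria and yeast were incubated 48 h at 37 °C and mould 5 days at 28 °C. MIC is the lowest concentration giving ≤20% growth versus control by OD620, in duplicate.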

[4] = tested on: Candida albicans ATCC 10231; assay: as above; settings: Table 8; * = significant inhibition of growth, but not complete inhibition
Method in brief: as §2

[5] = tested on: Enterococcus hirae ATCC 10541; assay: as above; settings: Table 8; * = significant inhibition of growth, but not complete inhibition
Method in brief: as §2

[6] = tested on: Epidermophyton floccosum DSM 10709; assay: as above; settings: Table 8; * = significant inhibition of growth, but not complete inhibition
Method in brief: as §2

[7] = tested on: Klebsiella pneumonia ATCC 4352; assay: as above; settings: Table 8; * = significant inhibition of growth, but not complete inhibition
Method in brief: as §2

[8] = tested on: Micrococcus luteus ATCC 9341; assay: as above; settings: Table 8; * = significant inhibition of growth, but not complete inhibition
Method in brief: as §2

[9] = tested on: Pseudomonas aeruginosa CIP A-22; assay: as above; settings: Table 8
Method in brief: as §2

[10] = tested on: S. epidermidis ATCC 12228; assay: as above; settings: Table 8; * = significant inhibition of growth, but not complete inhibition
Method in brief: as §2

[11] = tested on: Salmonella choleraesuis ATCC 10708; assay: as above; settings: Table 8
Method in brief: as §2

[12] = tested on: Staphylococcus aureus ATCC 9144; assay: as above; settings: Table 8; * = significant inhibition of growth, but not complete inhibition
Method in brief: as §2

[13] = tested on: Trichophyton mentagrophytes ATCC 9533; assay: as above; settings: Table 8; * = significant inhibition of growth, but not complete inhibition
Method in brief: as §2

Row | Structure (SMILES) | Minimum inhibitory concentration (MIC) E. coli [1] [µg/mL] | Minimum inhibitory concentration (MIC) E. coli NCTC 8196 [1] [µg/mL] | Minimum inhibitory concentration (MIC) S. hominis [2] [µg/mL] | Minimum inhibitory concentration (MIC) Aspergillus niger ATCC 6275 [3] | Minimum inhibitory concentration (MIC) Candida albicans ATCC 10231 [4] | Minimum inhibitory concentration (MIC) Enterococcus hirae ATCC 10541 [5] [µg/mL] | Minimum inhibitory concentration (MIC) Epidermophyton floccosum DSM 10709 [6] | Minimum inhibitory concentration (MIC) Klebsiella pneumonia ATCC 4352 [7] | Minimum inhibitory concentration (MIC) Micrococcus luteus ATCC 9341 [8] | Minimum inhibitory concentration (MIC) Pseudomonas aeruginosa CIP A-22 [9] [µg/mL] | Minimum inhibitory concentration (MIC) S. epidermidis ATCC 12228 [10] | Minimum inhibitory concentration (MIC) Salmonella choleraesuis ATCC 10708 [11] [µg/mL] | Minimum inhibitory concentration (MIC) Staphylococcus aureus ATCC 9144 [12] | Minimum inhibitory concentration (MIC) Trichophyton mentagrophytes ATCC 9533 [13]
1 | NCCCCCCCCCNc1cc(C(F)(F)F)nc(-c2ccccn2)n1 [compound 30] | 120 (≈ 315 µM) | >60 | 120 (≈ 315 µM) | >60 µg/mL | >60 µg/mL | >60 | >60 µg/mL | >60 µg/mL | 60 µg/mL (≈ 157 µM) | >60 | >60 µg/mL | >60 | >60 µg/mL | >60 µg/mL
2 | CC(C)c1cc(NCCCCCCCCCN)nc(-c2ccccn2)n1 [compound 42] | 120 (≈ 338 µM) | >60 | 30 (≈ 84.4 µM) | >60 µg/mL | >60 µg/mL | >60 | >60 µg/mL | >60 µg/mL | *15 μg/mL | >60 | 60 µg/mL (≈ 169 µM) | >60 | 60 µg/mL (≈ 169 µM) | >60 µg/mL
3 | CCCCCCCCCCCCNc1cc(C(C)C)nc(-c2ccccn2)n1 [compound 48] | 120 (≈ 314 µM) | >60 | 3.75 (≈ 9.8 µM) | >60 µg/mL | *15 μg/mL | <3.75 | *60 μg/mL | >60 µg/mL | <3.75 µg/mL | >60 | <3.75 µg/mL | >60 | <3.75 µg/mL | *60 μg/mL
4 | CC(C)(C)c1cc(NCCCCCCCCCN)nc(-c2ccccn2)n1 [compound 54] | 120 (≈ 325 µM) | >60 | 30 (≈ 81.2 µM) | >60 µg/mL | >60 µg/mL | >60 | >60 µg/mL | >60 µg/mL | 15 µg/mL (≈ 40.6 µM) | >60 | >60 µg/mL | >60 | *60 μg/mL | >60 µg/mL
5 | CCCCCCCCCCCCNc1cc(C(C)(C)C)nc(-c2ccccn2)n1 [compound 60] | 120 (≈ 303 µM) | >60 | 3.75 (≈ 9.45 µM) | 60 µg/mL (≈ 151 µM) | >60 µg/mL | 7.5 (≈ 18.9 µM) | >60 µg/mL | >60 µg/mL | <3.75 µg/mL | >60 | *7.5 μg/mL | >60 | 15 µg/mL (≈ 37.8 µM) | >60 µg/mL
6 | Cc1nc(-c2ccccn2)nc(NCCCCCCCCN)c1C(C)C [compound 65] | 120 (≈ 338 µM) | >60 | 30 (≈ 84.4 µM) | >60 µg/mL | >60 µg/mL | >60 | >60 µg/mL | >60 µg/mL | >60 µg/mL | >60 | >60 µg/mL | >60 | >60 µg/mL | >60 µg/mL
7 | Cc1nc(-c2ccccn2)nc(NCCCCCCCCCN)c1C(C)C [compound 66] | 30 (≈ 81.2 µM) | >60 | 3.75 (≈ 10.1 µM) | >60 µg/mL | >60 µg/mL | >60 | >60 µg/mL | >60 µg/mL | *30 μg/mL | >60 | 60 µg/mL (≈ 162 µM) | >60 | 60 µg/mL (≈ 162 µM) | >60 µg/mL
8 | CCCCCCCCNc1nc(-c2ccccn2)nc(C)c1C(C)C [compound 69] | 120 (≈ 352 µM) | >60 | 3.75 (≈ 11 µM) | *60 μg/mL | 60 µg/mL (≈ 176 µM) | 3.75 (≈ 11 µM) | 15 µg/mL (≈ 44.1 µM) | *60 μg/mL | <3.75 µg/mL | >60 | 7.5 µg/mL (≈ 22 µM) | >60 | 7.5 µg/mL (≈ 22 µM) | *15 μg/mL
9 | COCCc1cc(NCCCCCCCCN)nc(-c2ccccn2)n1 [compound 77] | 120 (≈ 336 µM) | >60 | 30 (≈ 83.9 µM) | >60 µg/mL | >60 µg/mL | >60 | >60 µg/mL | >60 µg/mL | >60 µg/mL | >60 | >60 µg/mL | >60 | >60 µg/mL | >60 µg/mL
10 | COCCc1cc(NCCCCCCCCCN)nc(-c2ccccn2)n1 [compound 78] | 60 (≈ 161 µM) | >60 | 15 (≈ 40.4 µM) | >60 µg/mL | >60 µg/mL | >60 | >60 µg/mL | >60 µg/mL | >60 µg/mL | >60 | *60 μg/mL | >60 | *60 μg/mL | >60 µg/mL
